The values below come from ChEMBL document CHEMBL1201862, “PubChem BioAssay data set” (2004).

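A five-concentration, 48-hour dose response in 96-well plates underlies each endpoint, interpolated linearly between surrounding concentrations. GI50: concentration for 50% inhibition of growth.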 Active and inactive are the calls of the source. Rule as the data show it: active = GI50 up to about 1.1 µM and inactive = higher. Where only a bound is given, the exact number is not on record here.

Among the test systems are SR; NCI-H23; CAKI-1; OVCAR-4; SF-295; M14; UO-31; HT-29; NCI-H460; ACHN; COLO 205; SF-539; SK-MEL-28; K562; SF-268; IGROV-1; KM12; A498.
Holding throughout (experiment): growth of human tumour cells (NCI), 48 h

As for `COc1ccc(C(=O)OCC2OC(n3cnc4c(=S)nc[nH]c43)C(OC(=O)c3ccc(OC)cc3)C2OC(=O)c2ccc(OC)cc2)cc1` (stereo not drawn), the GI50 in the experiment with SR was 14 µM (inactive); with NCI-H23, 39.7 µM (inactive); with CAKI-1, 48.6 µM (inactive); in the experiment on OVCAR-4, 7.82 µM (inactive); in the experiment with SF-295 it was 33.1 µM (inactive); in the experiment with M14, 3.36 µM (inactive). Further, the GI50 with UO-31 was 55.1 µM (inactive); in the experiment with HT-29, 24.9 µM (inactive); in the experiment with NCI-H460, 43.1 µM (inactive); with ACHN it was 76.9 µM (inactive); with COLO 205 it was > 100 µM (inactive); with SF-539, 20.5 µM (inactive). Besides, the GI50 in the experiment with SK-MEL-28 is > 100 µM (inactive); in the experiment on K562, 3.27 µM (inactive); in the experiment with SF-268, 30.1 µM (inactive); in the experiment with IGROV-1, 57 µM (inactive); in the experiment with KM12 it was 45.6 µM (inactive).

On to `O=C(O)CSc1ccc2nc3ccccc3c(O)c2c1`, for which the GI50 in the experiment with SR, with NCI-H23, in the experiment on CAKI-1, with OVCAR-4, in the experiment on SF-295 and in the experiment on M14 was > 100 µM (inactive) each time. Moreover, the GI50 in the experiment on UO-31, in the experiment with A498, in the experiment on HT-29, in the experiment with NCI-H460, with ACHN and in the experiment with COLO 205 was > 100 µM (inactive) in each case. Further, the GI50 in the experiment on SK-MEL-28, with K562, in the experiment with SF-268 and in the experiment on IGROV-1 was > 100 µM (inactive) in each case.

`COc1ccc(-c2ccc(CC(=O)O)cc2)cc1OC`: the GI50 with SR, with NCI-H23, in the experiment on CAKI-1, in the experiment with OVCAR-4, with SF-295 and in the experiment on M14 was > 100 µM (inactive) in each case. Further, the GI50 in the experiment on UO-31, in the experiment with A498, in the experiment with HT-29, in the experiment with NCI-H460, in the experiment on ACHN and in the experiment with COLO 205 was > 100 µM (inactive) each time. For the same compound, the GI50 with SK-MEL-28, in the experiment on K562, in the experiment with SF-268 and with KM12 was > 100 µM (inactive) in each case.

Take `CCOC(=O)c1ccc(O)cc1` [ETHYLPARABEN]: the GI50 in the experiment with SR, in the experiment with NCI-H23, in the experiment with CAKI-1, in the experiment on OVCAR-4, in the experiment with SF-295 and with M14 was > 100 µM (inactive) in each case. In addition, the GI50 in the experiment with UO-31, in the experiment on HT-29, in the experiment on NCI-H460, with ACHN, in the experiment on COLO 205 and with SF-539 was > 100 µM (inactive) each time. Moreover, the GI50 in the experiment on SK-MEL-28, in the experiment with K562, in the experiment with SF-268, in the experiment with IGROV-1 and in the experiment on KM12 was > 100 µM (inactive) throughout.

For the compound `COc1cc2c(cc1OC)C(=O)Cc1ccc3c(c1CNCC2)OCO3`, the GI50 in the experiment with NCI-H23, in the experiment with CAKI-1, with OVCAR-4, in the experiment with SF-295, in the experiment on M14 and with UO-31 was > 100 µM (inactive) in each case. Besides, the GI50 in the experiment on A498, in the experiment on HT-29, in the experiment on NCI-H460, in the experiment on ACHN, in the experiment with COLO 205 and with SF-539 was > 100 µM (inactive) each time. The GI50 in the experiment with SK-MEL-28, with K562, with SF-268, in the experiment with IGROV-1 and in the experiment on KM12 was > 100 µM (inactive) each time.

As to `CCC1(O)C[C@H]2CN(CCCc3c([nH]c4ccccc34)[C@@](C(=O)OC)(c3cc4c(cc3OC)N(C)C3[C@](O)(C(=O)OC)[C@H](OC(C)=O)[C@]5(CC)C=CCN6CC[C@]43[C@H]65)C2)C1` (stereo partly drawn), the GI50 is 0.743 µM (active) in the experiment with NCI-H23; 2.33 µM (inactive) in the experiment on CAKI-1; 0.353 µM (active) in the experiment with OVCAR-4; 0.275 µM (active) in the experiment with SF-295; 0.726 µM (active) in the experiment with M14; 4.38 µM (inactive) in the experiment with UO-31. The GI50 in the experiment on A498 is 1.21 µM (inactive); in the experiment with HT-29, 0.425 µM (active); in the experiment with NCI-H460 it was 0.557 µM (active); in the experiment on ACHN, > 2.92 µM (inactive); with COLO 205, 0.593 µM (active); in the experiment on SF-539, 0.991 µM (active). Further, the GI50 is 3.56 µM (inactive) in the experiment on SK-MEL-28; 0.354 µM (active) in the experiment on K562; 1.01 µM (active) in the experiment with SF-268; 2.88 µM (inactive) with IGROV-1; 0.578 µM (active) in the experiment on KM12.

In the case of `C=CCCC(=O)CC(=O)OCc1ccccc1`, the GI50 was 8.47 µM (inactive) in the experiment with NCI-H23; > 100 µM (inactive) in the experiment with CAKI-1; > 100 µM (inactive) in the experiment with OVCAR-4; > 100 µM (inactive) in the experiment with SF-295; > 100 µM (inactive) with M14; > 100 µM (inactive) in the experiment on UO-31. The GI50 in the experiment with A498, in the experiment on HT-29, in the experiment with NCI-H460, in the experiment with ACHN, in the experiment on COLO 205 and in the experiment with SF-539 was > 100 µM (inactive) each time. Further, the GI50 in the experiment with K562, in the experiment with SF-268, with IGROV-1 and in the experiment on KM12 was > 100 µM (inactive) throughout.

Turning to `CN(C)c1ccc(/C=C/C(=O)C(C)(C)C)cc1Br`, the GI50 is 26.1 µM (inactive) in the experiment on NCI-H23; 23.9 µM (inactive) in the experiment with CAKI-1; 19.9 µM (inactive) with OVCAR-4; 40.3 µM (inactive) in the experiment on SF-295; 18.9 µM (inactive) in the experiment on M14; 32.1 µM (inactive) in the experiment with UO-31. In addition, the GI50 with A498 was 41.1 µM (inactive); in the experiment on HT-29 it was 31.8 µM (inactive); in the experiment with NCI-H460 it was 35.8 µM (inactive); in the experiment on ACHN, 31.5 µM (inactive); with COLO 205 it was 25.7 µM (inactive); in the experiment on SF-539 it was 25.1 µM (inactive). For the same compound, the GI50 is 17.8 µM (inactive) in the experiment on SK-MEL-28; 25.2 µM (inactive) in the experiment with K562; 20.3 µM (inactive) in the experiment with SF-268; 35.4 µM (inactive) with IGROV-1; 24.1 µM (inactive) with KM12.

Turning to `CCCCCCCC(=O)OC[C@@H](C[As](=O)(O)O)OC(=O)CCCCCCC`, the GI50 with SR is 4.95 µM (inactive); in the experiment with NCI-H23, 12.9 µM (inactive); in the experiment with OVCAR-4 it was 11.9 µM (inactive); in the experiment on SF-295, 15.1 µM (inactive); with M14, 14.9 µM (inactive); with UO-31 it was 2.59 µM (inactive). The GI50 in the experiment with A498 is 11.2 µM (inactive); in the experiment on HT-29 it was 14.1 µM (inactive); with ACHN it was 12.7 µM (inactive); with COLO 205, 17.8 µM (inactive); with SF-539, 10.5 µM (inactive); with SK-MEL-28, 13.5 µM (inactive). The GI50 was 13.8 µM (inactive) in the experiment on K562, 5.85 µM (inactive) in the experiment with SF-268 and 5.21 µM (inactive) in the experiment with IGROV-1.
